Measurements from patent publication US20240158383A1, “RIBONUCLEOTIDE REDUCTASE (RNR) INHIBITORS AND USES THEREOF” (Boundless Bio, Inc., priority 2021, published 2024).

Assays:
RNR (RNR1:RNR2) = RNR (RNR1:RNR2) (Homo sapiens (Human), UniProt P23921+P31350); test: RNR enzyme activity, rapid-fire mass spectrometry (RFMS) assay; assay type: biochemical; conditions: [RNR] 50 nM, 1:1 RNR1:RNR2, [CDP] 5 μM, [ATP] 1 mM, 37° C., 45 min
Description: A rapid-fire mass spectrometry (RFMS) assay was used to assess RNR enzyme activity using a 384 well plate and a robotic platform.
The plate layout included two validated reference compounds (Triapine (3-AP) and Hydroxyurea (HU)): • A dose response in duplicate; top concentration: 5 μM (3-AP) and 250 μM (HU), semi-log • dilutions. • Spike wells in triplicate randomly spotted at four concentrations: • 250 μM, 100 μM, 30 μM and 2 μM for HU • 5 μM, 2 μM, 0.6 μM and 0.04 μM for 3-AP
First, the multidrop pipes were saturated for 30 minutes with enzymatic solution. Then 30 μL of Stop solution was distributed in column 24. Next, 15 μL of enzyme was distributed in column 1 to 24. Next, a pre-incubation step of 15 minutes at room temperature occurred, followed by distribution of 15 μL of substrate solution (column 1 to 24). Next, the plate was incubated for 45 minutes at 37° C. 30 μL of Stop solution was distributed to columns 1 to 23.
The final parameters for the enzyme reactions were: • Incubation: 37° C., 45 min • [CDP]: 5 μM; [ATP]: 1 mM; [NADPH]: No • [RNR]final: 50 nM with 1:1 (RNR1:RNR2) ratio • Final volume: 30 μL • Stop solution: 6% HCOOH containing 2 μM of 15
The compounds were screened at concentrations from 10 nM to 30 μM.

[1] = test system: pCHK1 (S345) in Colo320 DM cells; test: CHK1 cellular activity (phospho-CHK1 AlphaLisa); assay type: cell-based, human; conditions: Homo sapiens, COLO 320DM, 16 h, compound overnight (approximately 16 hours)
Description: Phospho-CHK1 cellular activity was measured as a marker of replication stress which is a consequence of RNR inhibition.
Colo320 DM cells (ATCC #CCL-220, derived from human colorectal adenocarcinoma, Dukes' type C) were seeded on a 96-well cell culture treated assay plate at a density of 50,000 cells/well in 200 μL of RPMI-1640 media supplemented with 10% Fetal Bovine Serum and incubated at 37 degrees Celsius overnight. The following day, test compound dilutions were added directly to the plated cells by a Tecan digital dispenser to a final DMSO concentration of <0.5% and incubated at 37 degrees Celsius overnight (approximately 16 hours). The following day all culture media is removed from the cells. 75 μL of 1× AlphaLisa lysis buffer is added to each well and plates are agitated on a shaker for 30 minutes at room temperature. The lysis of cells and detection of pCHK1 (S345) are performed with reagents contained within the AlphaLisa Sure Fire assay kit (Perkin Elmer #ALSU-PCHK1-A) according to the manufacturer's instructions. 10 μL of each lysate was then transferred to a white, 384-well assay plate (Perkin Elmer #6008280). 5 μL of Acceptor mix was then added to each well of lysate in the white, 384-well assay plate and incubated in the dark at room temperature for 60 minutes. 5 μL of Donor mix was then added to each well of the white, 384-well assay plate in subdued light and incubated at room temperature for 60 minutes. Plates are read on an Alpha Technology-compatible plate reader using standard AlphaLisa settings.

Chain of RNR (RNR1:RNR2) (P23921 whole entry): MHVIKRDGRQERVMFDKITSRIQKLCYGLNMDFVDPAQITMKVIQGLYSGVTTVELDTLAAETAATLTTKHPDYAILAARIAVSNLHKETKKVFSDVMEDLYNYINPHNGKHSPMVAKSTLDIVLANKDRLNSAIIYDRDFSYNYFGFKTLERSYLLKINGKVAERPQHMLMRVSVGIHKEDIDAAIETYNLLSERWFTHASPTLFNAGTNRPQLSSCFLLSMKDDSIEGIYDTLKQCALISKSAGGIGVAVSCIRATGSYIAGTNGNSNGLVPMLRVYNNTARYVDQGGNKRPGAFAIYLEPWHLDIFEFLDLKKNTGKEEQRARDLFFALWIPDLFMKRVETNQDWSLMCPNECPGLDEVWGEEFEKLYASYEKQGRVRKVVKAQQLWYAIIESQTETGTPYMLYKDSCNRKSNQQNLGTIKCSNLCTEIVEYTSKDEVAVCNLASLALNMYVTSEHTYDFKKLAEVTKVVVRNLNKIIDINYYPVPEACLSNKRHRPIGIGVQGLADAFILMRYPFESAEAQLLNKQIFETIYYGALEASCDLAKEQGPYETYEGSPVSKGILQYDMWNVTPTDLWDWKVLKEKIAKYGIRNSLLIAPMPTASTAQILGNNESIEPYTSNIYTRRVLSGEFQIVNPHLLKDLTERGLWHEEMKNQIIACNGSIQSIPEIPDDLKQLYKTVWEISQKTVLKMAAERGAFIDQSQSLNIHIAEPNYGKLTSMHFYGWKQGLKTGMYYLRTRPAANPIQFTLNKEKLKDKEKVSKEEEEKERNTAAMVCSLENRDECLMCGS
Chain of RNR (RNR1:RNR2) (P31350 whole entry): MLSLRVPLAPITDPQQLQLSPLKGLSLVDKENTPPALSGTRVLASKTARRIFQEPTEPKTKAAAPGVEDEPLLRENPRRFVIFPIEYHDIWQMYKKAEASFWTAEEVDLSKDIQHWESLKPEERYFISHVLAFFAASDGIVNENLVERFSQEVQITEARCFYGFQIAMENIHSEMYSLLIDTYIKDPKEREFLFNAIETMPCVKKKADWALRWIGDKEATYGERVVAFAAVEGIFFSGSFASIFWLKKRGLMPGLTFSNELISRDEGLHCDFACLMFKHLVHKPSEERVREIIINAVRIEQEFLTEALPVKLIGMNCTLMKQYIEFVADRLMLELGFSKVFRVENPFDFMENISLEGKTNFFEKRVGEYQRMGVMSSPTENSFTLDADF

Row | Structure (SMILES) | IC50 (RNR (RNR1:RNR2)) [µM] | IC50 [1] [µM]
1 | Cc1ccc(F)c([C@@H](C)[C@H](NS(=O)(=O)c2cc(Cl)c(F)cc2F)c2nn[nH]n2)c1C [Example 36, 5-chloro-2,4-difluoro-N-((1S,2R)-2-(6-fluoro-2,3-dimethylphenyl)-1-(2H-tetrazol-5-yl)propyl)benzenesulfonamide] | 1 to 5 | 50 to 100
2 | Cc1ccc(F)c([C@@H](C)[C@H](NS(=O)(=O)C2CCCCC2)c2nn[nH]n2)c1C [Example 8, N-((1S,4S)-2-(6-fluoro-2,3-dimethylphenyl)-1-(2H-tetraozl-5-yl)propyl)cyclohexanesulfonamide] | 1 to 5 | 50 to 100
3 | Cc1cc(S(=O)(=O)N[C@H](c2nn[nH]n2)[C@H](C)c2c(F)ccc(C)c2C)c(F)cc1Cl [Example 42] | 1 to 5 | 50 to 100
4 | COc1cc(Cl)ccc1S(=O)(=O)N[C@H](c1nnnn1C)[C@H](C)c1c(F)ccc(C)c1C [Example 34, 4-chloro-N-((1S,2R)-2-(6-fluoro-2,3-dimethylphenyl)-1-(1-methyl-1H-tetrazol-5-yl)propyl)-2-methoxybenzensulfonamide] | 5 to 30 | 50 to 100
5 | Cc1ccc(F)c([C@@H](C)[C@H](NS(=O)(=O)c2cc(Cl)ccc2F)c2nn[nH]n2)c1C [Example 44] | 1 to 5 | 50 to 100
6 | Cc1ccc(Cl)c(S(=O)(=O)N[C@H](c2nn[nH]n2)[C@H](C)c2c(F)ccc(C)c2C)c1 [Example 60, 2-chloro-N-((1S,2R)-2-(6-fluoro-2,3-dimethylphenyl)-1-(2H-tetrazol-5-yl)propyl)-5-methylbenzenesulfonamide] | 1 to 5 | 50 to 100
7 | Cc1ccc(Cl)cc1S(=O)(=O)N[C@H](c1nn[nH]n1)[C@H](C)c1c(F)ccc(C)c1C [Example 53, 5-chloro-N-((1S,2R)-2-(6-fluoro-2,3-dimethylphenyl)-1-(2H-tetrazol-5-yl)propyl)-2-methylbenzenesulfonamide] | 5 to 30 | 50 to 100
8 | Cc1cc(Cl)ccc1S(=O)(=O)N[C@H](c1nn[nH]n1)[C@H](C)c1c(F)ccc(C)c1C [Example 25, 4-chloro-N-((1S,2R)-2-(6-fluoro-2,3-dimethylphenyl)-1-(2H-tetrazol-5-yl)propyl)-2-methylbenzenesulfonamide] | 0.1 to 1 | 10 to 30
9 | Cc1ccc(F)c([C@@H](C)[C@H](NS(=O)(=O)c2ccc(F)c(C#N)c2)c2nn[nH]n2)c1C [Example 37, 3-cyano-4-fluoro-N-((1S,2R)-2-(6-fluoro-2,3-dimethylphenyl)-1-(2H-tetrazol-5-yl)propyl)benzensulfonamide] | 1 to 5 | 50 to 100
10 | Cc1ccc(F)c([C@@H](C)[C@H](NS(=O)(=O)c2ccc(Cl)cc2C#N)c2nn[nH]n2)c1C [Example 5, 4-chloro-2-cyano-N-((1S2R)-2-(6-fluoro-2,3-dimethylphenyl)-1-(2H-tetrazol-5-yl)propyl)benzenesulfonamide] | 0.1 to 1 | 50 to 100

The remaining lines, values ahead:

Row | IC50 (RNR (RNR1:RNR2)) [µM] | IC50 [1] [µM] | Structure (SMILES)
11 | ≤ 0.1 | ≤ 10 | COc1cc(Cl)ccc1S(=O)(=O)N[C@H](c1nn[nH]n1)[C@H](C)c1c(F)ccc(C)c1C [Example 1, 4-chloro-N-[(1S,2R)-2-(6-fluoro-2,3-dimethylphenyl)-1-(2H-1,2,3,4-tetrazol-5-yl)propyl]-2-methoxybenzene-1-sulfonamide]
12 | 0.1 to 1 | 30 to 50 | Cc1ccc(F)c([C@@H](C)[C@H](NS(=O)(=O)c2ccc(Cl)cc2N2CCOCC2)c2nn[nH]n2)c1C [Example 78, 4-chloro-N-((1S,2R)-2-(6-fluoro-2,3-dimethylphenyl)-1-(2H-tetrazol-5-yl)propyl)-2-morpholinobenzenesulfonamide]
13 | 0.1 to 1 | 50 to 100 | Cc1ccc(F)c([C@@H](C)[C@H](NS(=O)(=O)c2ccc(Cl)c([C@@H](O)C(=O)N(C)C)c2)c2nn[nH]n2)c1C [Example 57, (R)-2-(2-chloro-5-(N-((1S,2R)-2-(6-fluoro-2,3-dimethylphenyl)-1-(2H-tetrazol-5-yl)propyl)sulfamoyl)phenyl)-2-hydroxy-N,N-dimethylacetamide]
14 | 0.1 to 1 | 50 to 100 | Cc1ccc(F)c([C@@H](C)[C@H](NS(=O)(=O)c2ccc(Cl)cc2N2CCN(C)CC2)c2nn[nH]n2)c1C [Example 79, 4-chloro-N-((1S,2R)-2-(6-fluoro-2,3-dimethylphenyl)-1-(2H-tetrazol-5-yl)propyl)-2-(4-methylpiperazin-1-yl)benzenesulfonamide]
15 | 0.1 to 1 | 50 to 100 | COc1c(S(=O)(=O)N[C@H](c2nn[nH]n2)[C@H](C)c2c(F)ccc(C)c2C)ccc(C#N)c1F (racemic) [Example 70, rac-4-cyano-3-fluoro-N-((1R,2S)-2-(6-fluoro-2,3-dimethylphenyl)-1-(2H-tetrazol-5-yl)propyl)-2-methoxybenzenesulfonamide]
16 | 0.1 to 1 | 10 to 30 | Cc1ccc(F)c([C@@H](C)[C@H](NS(=O)(=O)c2ccc(Cl)c(F)c2)c2nn[nH]n2)c1C [Example 49]
17 | ≤ 0.1 | 50 to 100 | Cc1ccc(F)c([C@@H](C)[C@H](NS(=O)(=O)c2cc(C(C)(C)O)c(Cl)cc2C(N)=O)c2nn[nH]n2)c1C (racemic) [Example 13, rac-5-chloro-2-(N-((1R,2S)-2-(6-fluoro-2,3-dimethylphenyl)-1-(2H-tetrazol-5-yl)propyl)sulfamoyl)-4-(2-hydroxypropan-2-yl)benzamide]
18 | 0.1 to 1 | 10 to 30 | Cc1ccc(F)c([C@@H](C)[C@H](NS(=O)(=O)c2ccc(Cl)cc2C2CC2)c2nn[nH]n2)c1C [Example 61, 4-chloro-2-cyclopropyl-N-((1S,2R)-2-(6-fluoro-2,3-dimethylphenyl)-1-(2H-tetrazol-5-yl)propyl)benzenesulfonamide]
19 | 0.1 to 1 | 50 to 100 | Cc1ccc(F)c([C@@H](C)[C@H](NS(=O)(=O)c2ccc(Cl)c(Cl)c2)c2nn[nH]n2)c1C [Example 32, 3,4-dichloro-N-((1S,2R)-2-(6-fluoro-2,3-dimethylphenyl)-1-(2H-tetrazol-5-yl)propyl)benzenesulfonamide]
20 | 0.1 to 1 | 50 to 100 | Cc1ccc(F)c([C@@H](C)[C@H](NS(=O)(=O)c2ccc(Cl)c([C@H](O)C(=O)N(C)C)c2)c2nn[nH]n2)c1C [Example 58, (S)-2-(2-chloro-5-(N-((1S,2R)-2-(6-fluoro-2,3-dimethylphenyl)-1-(2H-tetrazol-5-yl)propyl)sulfamoyl)phenyl)-2-hydroxy-N,N-dimethylacetamide]
21 | ≤ 0.1 | ≤ 10 | Cc1ccc(F)c([C@@H](C)[C@H](NS(=O)(=O)c2ccc(Cl)cc2N(C)C)c2nn[nH]n2)c1C (racemic) [Example 71, rac-4-chloro-2-(dimethylamino)-N-((1R,2S)-2-(6-fluoro-2,3-dimethylphenyl)-1-(2H-tetrazol-5-yl)propyl)benzenesulfonamide]
22 | ≤ 0.1 | 10 to 30 | [2H]C([2H])([2H])Oc1cc(Cl)ccc1S(=O)(=O)N[C@H](c1nn[nH]n1)[C@H](C)c1c(F)ccc(C)c1C [Example 54, 4-chloro-N-((1S,2R)-2-(6-fluoro-2,3-dimethylphenyl)-1-(2H-tetrazol-5-yl)propyl)-2-(methoxy-d3)benzenesulfonamide]
23 | ≤ 0.1 | 10 to 30 | Cc1ccc(F)c([C@@H](C)[C@H](NS(=O)(=O)c2ccc(Cl)cc2OC(F)(F)F)c2nn[nH]n2)c1C [Example 30, 4-chloro-N-((1S,2R)-2-(6-fluoro-2,3-dimethylphenyl)-1-(2H-tetrazol-5-yl)propyl)-2-(trifluromethoxy)benzenesulfonamdie]
24 | ≤ 0.1 | 10 to 30 | [2H]C([2H])([2H])[C@@]1(O)CCOc2c(S(=O)(=O)N[C@H](c3nn[nH]n3)[C@H](C)c3c(F)ccc(C)c3C)ccc(Cl)c21 [Example 12, (R)-5-chloro-N-((1S,2R)-2-(6-fluoro-2,3-dimethylphenyl)-1-(2H-tetrazol-5-yl)propyl)-4-hydroxy-4-(methyl-d3)chromane-8-sulfonamide]
